In ChEMBL document CHEMBL4130458, “Oxidation of the Meroterpenoid (-)-Terreumol C from the Mushroom Tricholoma terreum: Discovery of Cytotoxic Analogues” (J Nat Prod, 2017):
pEC50, pIC50: −log10 of the molar value. ≈ marks a conversion by molar mass, not a printed value. Calls of active or inactive are those of the source. The rule behind the calls is not given here.

Legend:
Pseudomonas aeruginosa = assay: Antimicrobial activity against Pseudomonas aeruginosa PA7 DSM 24068 up to 100 uM after 18 hrs by serial dilution method; type: functional, organism-based
Staphylococcus aureus [1] = assay: Growth promoting activity against methicillin-resistant Staphylococcus aureus at 50 uM after 18 hrs by serial dilution method; type: organism-based; conditions: in vivo
[2] = Antiproliferative activity against human FS4-LTM cells after 24 hrs by WST-1 assay; type: ADME, cell-based
Candida albicans = assay: Antimicrobial activity against Candida albicans up to 100 uM after 18 hrs by serial dilution method; type: functional, organism-based
Acinetobacter baumannii = assay: Antimicrobial activity against Acinetobacter baumannii DSM 30007 up to 100 uM after 18 hrs by serial dilution method; type: functional, organism-based
Enterococcus faecium = assay: Antimicrobial activity against Enterococcus faecium DSM 20477 up to 100 uM after 18 hrs by serial dilution method; type: functional, organism-based
MCF7 = assay: Antiproliferative activity against human MCF7 cells after 5 days by WST-1 assay; type: functional, cell-based; conditions: MCF7, 120 h
KB 3-1 = assay: Antiproliferative activity against human KB-3-1 cells after 5 days by WST-1 assay; type: functional, cell-based; conditions: KB 3-1, 120 h
Klebsiella pneumoniae = assay: Antimicrobial activity against Klebsiella pneumoniae DSM 11678 up to 100 uM after 18 hrs by serial dilution method; type: functional, organism-based
L929 = assay: Antiproliferative activity against mouse L929 cells after 5 days by WST-1 assay; type: ADME, cell-based; conditions: L929, 120 h
Staphylococcus aureus [3] = assay: Antimicrobial activity against methicillin-resistant Staphylococcus aureus ICB 25701 up to 100 uM after 18 hrs by serial dilution method; type: functional, organism-based
Staphylococcus aureus [4] = assay: Antimicrobial activity against methicillin-resistant Staphylococcus aureus DSM 11822 up to 100 uM after 18 hrs by serial dilution method; type: functional, organism-based
Escherichia coli = assay: Antimicrobial activity against Escherichia coli DSM 1116 up to 100 uM after 18 hrs by serial dilution method; type: functional, organism-based
Staphylococcus aureus [5] = assay: Antimicrobial activity against methicillin-resistant Staphylococcus aureus up to 100 uM after 18 hrs by serial dilution method; type: functional, organism-based
Staphylococcus aureus [6] = assay: Antimicrobial activity against methicillin-resistant Staphylococcus aureus isolate RKI 11-02670 up to 100 uM after 18 hrs by serial dilution method; type: functional, organism-based
Staphylococcus aureus [7] = assay: Antimicrobial activity against methicillin-resistant Staphylococcus aureus isolate RKI 11-02670 after 18 hrs by serial dilution method; type: functional, organism-based; conditions: isolate RKI 11-02670, 18 h

In the case of `COc1cc(O)c2c(c1O)C[C@]1(C)O[C@@H]1CC[C@@]1(C)O[C@@H]1C2=O`, the Activity (Pseudomonas aeruginosa) was “inactive”, the Activity (Staphylococcus aureus [1]) was over 25% and the pIC50 [2] was 4.54. The Activity (Candida albicans) was “inactive”, the Activity (Acinetobacter baumannii) was “inactive” and the Activity (Enterococcus faecium) was “inactive”. For the same molecule, the pIC50 (MCF7) was 4.77, the pIC50 (KB 3-1) was 5.05 and the Activity (Klebsiella pneumoniae) was “inactive”. The pIC50 (L929) was 5.00, the Activity (Staphylococcus aureus [3]) was “inactive” and the Activity (Staphylococcus aureus [4]) was “inactive”. The Activity (Escherichia coli) was “inactive”, the Activity (Staphylococcus aureus [5]) was “inactive” and the Activity (Staphylococcus aureus [6]) was “inactive”.

With `COc1cc(O)c2c(c1O)C[C@]1(C)O[C@@](C)(CC[C@H]1O)[C@H](O)C2=O` the Activity (Pseudomonas aeruginosa) was “inactive”, the pIC50 [2] was under 4.00 and the Activity (Candida albicans) was “inactive”. The Activity (Acinetobacter baumannii) was “inactive”, the Activity (Enterococcus faecium) was “inactive” and the pIC50 (MCF7) was 4.00. For the same molecule, the pIC50 (KB 3-1) was 4.00, the Activity (Klebsiella pneumoniae) was “inactive” and the pIC50 (L929) was under 4.00. For the same molecule, the Activity (Staphylococcus aureus [3]) was “inactive”, the Activity (Staphylococcus aureus [4]) was “inactive” and the Activity (Escherichia coli) was “inactive”. For the same molecule, the Activity (Staphylococcus aureus [5]) was “inactive” and the Activity (Staphylococcus aureus [6]) was “inactive”.

For `COC1=CC(=O)C2=C(C[C@]3(C)O[C@@H]3CC[C@@]3(C)O[C@@H]3C2=O)C1=O`, the Activity (Pseudomonas aeruginosa) was “inactive”, the pIC50 [2] was 4.51 and the Activity (Candida albicans) was “inactive”. For the same molecule, the Activity (Acinetobacter baumannii) was “inactive”, the Activity (Enterococcus faecium) was “inactive” and the pIC50 (MCF7) was 4.62. For the same molecule, the pIC50 (KB 3-1) was 4.70, the Activity (Klebsiella pneumoniae) was “inactive” and the pIC50 (L929) was 4.74. For the same molecule, the Activity (Staphylococcus aureus [3]) was “inactive”, the Activity (Staphylococcus aureus [4]) was “inactive” and the Activity (Escherichia coli) was “inactive”. For the same molecule, the Activity (Staphylococcus aureus [5]) was “inactive” and the Activity (Staphylococcus aureus [6]) was “inactive”.

With `C=C1Cc2c(O)c(OC)cc(O)c2C(=O)[C@H]2O[C@]2(C)CC[C@H]1Br` the Activity (Pseudomonas aeruginosa) was “inactive”, the pIC50 [2] was 4.85 and the Activity (Candida albicans) was “inactive”. The Activity (Acinetobacter baumannii) was “inactive”, the Activity (Enterococcus faecium) was “inactive” and the pIC50 (MCF7) was 4.96. The pIC50 (KB 3-1) was 5.35, the Activity (Klebsiella pneumoniae) was “inactive” and the pIC50 (L929) was 5.60. For the same molecule, the Activity (Staphylococcus aureus [3]) was “inactive”, the Activity (Staphylococcus aureus [4]) was “inactive” and the Activity (Escherichia coli) was “inactive”. The Activity (Staphylococcus aureus [5]) was “inactive” and the Activity (Staphylococcus aureus [6]) was “inactive”.

With `COc1cc(O)c2c(c1O)[C@@H](O)/C(C)=C\CC[C@@]1(C)O[C@@H]1C2=O` the Activity (Pseudomonas aeruginosa) was “inactive”, the pIC50 [2] was 4.54 and the Activity (Candida albicans) was “inactive”. For the same molecule, the Activity (Acinetobacter baumannii) was “inactive”, the Activity (Enterococcus faecium) was “inactive” and the pIC50 (MCF7) was 5.21. For the same molecule, the pIC50 (KB 3-1) was 5.39, the Activity (Klebsiella pneumoniae) was “inactive” and the pIC50 (L929) was 5.40. The Activity (Staphylococcus aureus [3]) was “inactive”, the Activity (Staphylococcus aureus [4]) was “inactive” and the Activity (Escherichia coli) was “inactive”. For the same molecule, the Activity (Staphylococcus aureus [5]) was “inactive” and the Activity (Staphylococcus aureus [6]) was “inactive”.

`COC1=CC(=O)C2=C(C/C(C)=C\CC[C@@]3(C)O[C@@H]3C2=O)C1=O` gave a pEC50 (Staphylococcus aureus [7]) of 4.19, a pIC50 [2] of 4.55 and a pIC50 (MCF7) of 4.57. The pIC50 (KB 3-1) was 4.85 and the pIC50 (L929) was 4.89.

In the case of `COc1cc(O)c2c(c1O)C/C(CO)=C\CC[C@@]1(C)O[C@@H]1C2=O`, the pEC50 (Staphylococcus aureus [7]) was 4.30, the pIC50 [2] was 4.38 and the pIC50 (MCF7) was 4.37. The pIC50 (KB 3-1) was 4.23 and the pIC50 (L929) was 4.40.

In the case of `COc1cc(O)c2c(c1O)C/C(C)=C\CC[C@@]1(C)O[C@@H]1C2=O`, the Activity (Pseudomonas aeruginosa) was “inactive”, the Activity (Staphylococcus aureus [1]) was over 25% and the pIC50 [2] was 4.55. The Activity (Candida albicans) was “inactive”, the Activity (Acinetobacter baumannii) was “inactive” and the Activity (Enterococcus faecium) was “inactive”. The pIC50 (MCF7) was 4.82, the pIC50 (KB 3-1) was 5.00 and the Activity (Klebsiella pneumoniae) was “inactive”. The pIC50 (L929) was 5.01, the Activity (Staphylococcus aureus [3]) was “inactive” and the Activity (Staphylococcus aureus [4]) was “inactive”. The Activity (Escherichia coli) was “inactive”, the Activity (Staphylococcus aureus [5]) was “inactive” and the Activity (Staphylococcus aureus [6]) was “inactive”.

Molecule `COc1cc(O)c2c(c1O)C/C(CBr)=C\CC[C@@]1(C)O[C@@H]1C2=O` has a pEC50 (Staphylococcus aureus [7]) of 4.66, an MIC (Staphylococcus aureus [7]) of 13 µg/mL (≈ 33.9 µM) and a pIC50 [2] of 4.54. It also gave a pIC50 (MCF7) of 4.49, a pIC50 (KB 3-1) of 4.47 and a pIC50 (L929) of 5.00.

`COc1cc(O)c2c(c1O)C/C(C(OC(C)=O)OC(C)=O)=C\CC[C@@]1(C)O[C@@H]1C2=O` gave a pEC50 (Staphylococcus aureus [7]) of 4.27, a pIC50 [2] of 5.60 and a pIC50 (MCF7) of 5.25. For the same molecule, the pIC50 (KB 3-1) was 5.25 and the pIC50 (L929) was 5.57.
